Assay [1] deals with edema in left hind paw. As to the kind of experiment: Carrageenin-induced hind paw edema in rats, test compound orally 1 hour before (Winter's method), anti-inflammatory activity. The note with it: 6 mg/kg oral, one hour before carrageenin, paw volume 3 hours after carrageenin. Format: in vivo, Male Wistar rats. On the procedure:
Anti-inflammatory activity was evaluated by the Winter's method [Journal of Pharmacology and Experimental Therapeutics, volume 141, page 369(1963)]. Male Wistar rats (group of 6 animals) were administered orally the test compounds (dose: 6 mg/kg) one hour before inducing the edema in left hind paw with 0.1 ml of a 1% carrageenin-saline suspension. Volumes of the hind paws were determined with a volume meter 3 hours after the injection of carrageenin. Indomethacin (Control 1) and 4-vinylphenylacetic acid (Control 2) were used as controls.

The test system of assay [2] is edema in left hind paw. As to the kind of experiment: Duration of inhibition of carrageenin-induced hind paw edema, test compound orally 1, 24 or 48 hours before inducing the edema. In kind it is in vivo, Male Wistar rats. Particulars: Rattus norvegicus; for inhibition at 30 mg/kg: dose 30 mg/kg oral; for inhibition at 1.5 mg/kg: dose 1.5 mg/kg oral. Here is the method:
Anti-inflammatory activity was evaluated by the Winter's method [Journal of Pharmacology and Experimental Therapeutics, volume 141, page 369(1963)]. […] Volumes of the hind paws were determined with a volume meter 3 hours after the injection of carrageenin. Indomethacin (Control 1) and 4-vinylphenylacetic acid (Control 2) were used as controls.
Following a procedure similar to that of Test example 1, the test compounds were administered orally to the rats 1, 24 or 48 hours before inducing the edema, and there was obtained a result shown in Table 2.
(Carrageenan injected into the paw causes an acute inflammation.)

The mark [3] stands for this setting: 1 hr before inducing edema, read-out: Inhibition of edema, 1 hr.
Setting [4] is: 24 hrs before inducing edema, read-out: Inhibition of edema, 24 hrs.
The mark [5] stands for this setting: 48 hrs before inducing edema, read-out: Inhibition of edema, 48 hrs.

Like-named read-outs stand apart in the source and are kept apart here.

These results are taken from US4557871A, “Novel styrene derivatives of the general formula” (Taisho Pharmaceutical Co., Ltd., priority 1983, dated 1985).

Take `C=Cc1ccc(CC(=O)O)cc1` [Control 2, 4-vinylphenylacetic acid]: in the assay with edema in left hind paw [1] (Rattus norvegicus, po, read-out: Inhibition of edema), the inhibition (in general, the relative decrease from the control value, in per cent) at 6 mg/kg turned out to be 15.7%. Besides, the inhibition at 30 mg/kg with edema in left hind paw [2] (setting [3]) was 40.2%; in the assay with edema in left hind paw [2] (setting [4]), 1.3%; with edema in left hind paw [2] (setting [5]), -3.5%.
On to `CC(C(=O)O)c1ccc(C=C(Cl)Cl)cc1` (centres unmarked) [ST-1, 2-[4-(2,2-dichlorovinyl)phenyl]propionic acid], for which the Inhibition of edema with edema in left hind paw [1] was determined as 66.1%. Besides, the figures for the inhibition at 1.5 mg/kg in the assay on edema in left hind paw [2] (setting [3]), in the assay with edema in left hind paw [2] (setting [4]) and in the assay on edema in left hind paw [2] (setting [5]) were 42.6%, 31.1% and 25.3%, respectively.
